≈ marks a conversion by molar mass, not a printed value. Read-outs that look alike come from different tables or passages of the source.
Legend:
Mtb H37Rv = test: microbe, parasite or virus in culture; format: cell-based; settings: Mycobacterium tuberculosis
Vero cells = test: cells; format: cell-based; settings: Chlorocebus sabaeus, MTT, cytotoxicity
Mtb = system: Mtb; set-up: method as in Gajadeera et al., 2015; settings: ref Gajadeera et al., 2015, cited from earlier work
[1] = 50 mM Tris pH 7.5, 200 mM NaCl, no enzyme, 37 °C, 1 h
[2] = Liver microsome stability assay, mouse; format: in vitro ADME, male CD-1 mouse; settings: MLM, with NADPH, after 30 min, 1 μM compound
Description: (§1) The assay was performed with liver microsomes from male CD-1 mouse (Xenotech) and pooled human (Bioreclamation). Compounds HTB-03, HTB-04 and HTB-05 were tested at 1 μM with a final concentration of microsomal protein of 1 mg/mL. The reaction was initiated by the addition of NADPH (1 mM), and samples were incubated for up to […] at 37 °C in a shaking incubator. The reaction was terminated at 0, 5, 15 and 30 min by the addition of ice-cold ACN/MeOH (50:50) spiked with internal standard. Samples were centrifuged at 4000 rpm at 4 °C for 15 min and the supernatants analyzed by LC-MS/MS. The assay evaluated the metabolic stability of compounds by measuring the amount of parent remaining to test compounds with or without NADPH cofactor. LC-MS/MS: AB Sciex 4500 Qtrap; Kinetex 2.6 μm C18 100 Å column (3.0 mm × 30 mm); mobile phase A, 0.1% formic acid in H2O; mobile phase B, 0.1% formic acid in ACN; flow rate, 0.8 mL/min; room temperature.

[3] = Liver microsome stability assay, human; format: in vitro ADME; settings: HLM, with NADPH, after 30 min, 1 μM compound
Description: as §1

[4] = 50 mM Tris pH 7.5, 200 mM NaCl, 2% DMSO

Compound	MIC (Mtb H37Rv) [µM]	IC50 (Vero cells) [µM]	anti-tubercular activity (Mtb)	anti-tubercular activity (Mtb; listed as rhein)	stability in the assay conditions (TLC) [1]	Substrate remaining [2] [%]	Substrate remaining [3] [%]	solubility in the assay conditions [4]
COC(=O)c1cc(OC(C)=O)c2c(c1)C(=O)c1cccc(OC(C)=O)c1C2=O [HTB-02]	5.13 (≈ 1.96 µg/mL)	15.5	–	–	–	–	–	–
O=C(O)c1cc(O)c2c(c1)C(=O)c1cccc(O)c1C2=O [Rhein, rhein]	106 (≈ 30.2 µg/mL)	182	does not exhibit anti-tubercular activity	does not inhibit Mtb	–	–	–	–
CC(=O)Oc1cccc2c1C(=O)c1c(OC(C)=O)cc(C(=O)O)cc1C2=O [Diacerein, diacerein, reference compound]	> 86.9	161	–	–	degraded to rhein	–	–	–
COC(=O)c1cc(O)c2c(c1)C(=O)c1cccc(O)c1C2=O [HTB-01]	6.37 (≈ 1.9 µg/mL)	> 215	–	–	–	–	–	–
CC(=O)Oc1cccc2c1C(=O)c1c(OC(C)=O)cc(C(=O)OC3C(C)CCCC3C)cc1C2=O (stereo not shown) [HTB-06]	7.31 (≈ 3.5 µg/mL)	58.1	–	–	–	–	–	–
CC(=O)Oc1cccc2c1C(=O)c1c(OC(C)=O)cc(C(=O)OCCCCCl)cc1C2=O [HTB-04]	3.55 (≈ 1.63 µg/mL)	84	–	–	–	79.8	82.4	limited solubility
NNC(=O)c1ccncc1 [INH, isoniazid, reference compound]	0.26 (≈ 0.0357 µg/mL)	–	–	–	–	–	–	–
CC1CCCC(C)C1OC(=O)c1cc(O)c2c(c1)C(=O)c1cccc(O)c1C2=O (stereo not shown) [HTB-05]	3.9 (≈ 1.54 µg/mL)	> 162	–	–	–	42.9	67.8	–
O=C(OCCCCCl)c1cc(O)c2c(c1)C(=O)c1cccc(O)c1C2=O [HTB-03]	2.56 (≈ 0.959 µg/mL)	> 171	–	–	appeared stable	66.3	92.8	–
